Assay results as given in ChEMBL document CHEMBL3244320, “2-Acetylpyridine thiosemicarbazones. 1. A new class of potential antimalarial agents” (J Med Chem, 1979).
Calls of active or inactive are those of the source. The calls are words filed in the database; no cut-off is given here.

The compounds below were run on Plasmodium berghei (assay: Antimalarial activity against Plasmodium berghei KBG 173 infected in ICR/HA Swiss mouse assessed as increase in mean survival time at 640 mg/kg, sc administered 72 hrs post infection). Details: route subcutaneous.
Type: functional

Going from `C/C(=N\NC(=S)NCc1cccc(F)c1)c1ccccn1` to `C/C(=N\NC(=S)NCc1cccc(Cl)c1)c1ccccn1`, the MST falls from 9.4 days to -0.4 days.

Compared with `COc1cccc(NC(=S)N/N=C(\C)c2ccccn2)c1`, `C/C(=N\NC(=S)Nc1cccc(Cl)c1)c1ccccn1` is lower in MST: 9.6 days for the first, 7.1 days for the second.

Going from `C/C(=N\NC(=S)Nc1ccccc1Cl)c1ccccn1` to `COc1ccccc1NC(=S)N/N=C(\C)c1ccccn1`, the MST falls from 8.1 days to 6.6 days.

Compared with `C/C(=N\NC(=S)NCc1ccccc1C)c1ccccn1`, `COc1ccccc1CNC(=S)N/N=C(\C)c1ccccn1` is lower in MST: 8.9 days for the first, 6.9 days for the second.

Compared with `C/C(=N\NC(=S)NCc1ccc(C)cc1C)c1ccccn1`, `C/C(=N\NC(=S)Nc1c(C)cccc1C)c1ccccn1` is higher in MST: 8.9 days for the first, 11.4 days for the second.

Going from `C/C(=N\NC(=S)Nc1ccccc1[N+](=O)[O-])c1ccccn1` to `CCc1ccccc1NC(=S)N/N=C(\C)c1ccccn1`, the MST rises from 4.5 days to 5.1 days.

Going from `C/C(=N\NC(=S)NC1CCCCCCC1)c1ccccn1` to `C/C(=N\NC(=S)Nc1ccccn1)c1ccccn1`, the MST falls from 10.7 days to 8.1 days.

First: C/C(=N\NC(=S)NC(C)(C)CC(C)(C)C)c1ccccn1
Second: COc1ccc(CNC(=S)N/N=C(\C)c2ccccn2)cc1
The MST of the first is higher: 8.7 days for the first, 7.9 days for the second.

Going from `C/C(=N\NC(=S)NCc1ccc(Cl)cc1)c1ccccn1` to `C/C(=N\NC(=S)Nc1ccc(Cl)cc1)c1ccccn1`, the MST rises from 6.9 days to 8.3 days.

First: COc1cccc(CNC(=S)N/N=C(\C)c2ccccn2)c1
Second: CCc1ccc(NC(=S)N/N=C(\C)c2ccccn2)cc1
The MST of the first is higher: 5.9 days for the first, 5.7 days for the second.

`C/C(=N\NC(=S)Nc1ccc(C(C)C)cc1)c1ccccn1` was tested, and the MST was 5.5 days.

These compounds were tested on Plasmodium berghei (assay: Antimalarial activity against Plasmodium berghei KBG 173 infected in ICR/HA Swiss mouse assessed as increase in mean survival time at 160 mg/kg, sc administered 72 hrs post infection). Details: route subcutaneous.
Type: functional

Compared with `C/C(=N\NC(=S)NCc1cccc(F)c1)c1ccccn1`, `C/C(=N\NC(=S)NCc1cccc(Cl)c1)c1ccccn1` is lower in MST: 3.4 days for the first, 1.6 days for the second.

Going from `COc1cccc(NC(=S)N/N=C(\C)c2ccccn2)c1` to `C/C(=N\NC(=S)Nc1cccc(Cl)c1)c1ccccn1`, the MST falls from 8.1 days to 2.5 days.

Going from `C/C(=N\NC(=S)Nc1ccccc1Cl)c1ccccn1` to `COc1ccccc1NC(=S)N/N=C(\C)c1ccccn1`, the MST falls from 2.3 days to 2 days.

First: C/C(=N\NC(=S)NCc1ccccc1C)c1ccccn1
Second: COc1ccccc1CNC(=S)N/N=C(\C)c1ccccn1
The MST of the first is higher: 5.9 days for the first, 1.3 days for the second.

First: C/C(=N\NC(=S)NCc1ccc(C)cc1C)c1ccccn1
Second: C/C(=N\NC(=S)Nc1c(C)cccc1C)c1ccccn1
The MST of the first is higher: 3.1 days for the first, 2 days for the second.

First: C/C(=N\NC(=S)Nc1ccccc1[N+](=O)[O-])c1ccccn1
Second: CCc1ccccc1NC(=S)N/N=C(\C)c1ccccn1
The MST of the first is higher: 0.9 days for the first, 0.7 days for the second.

Compared with `C/C(=N\NC(=S)NC1CCCCCCC1)c1ccccn1`, `C/C(=N\NC(=S)Nc1ccccn1)c1ccccn1` is higher in MST: 3.4 days for the first, 4.5 days for the second.

Going from `C/C(=N\NC(=S)NC(C)(C)CC(C)(C)C)c1ccccn1` to `COc1ccc(CNC(=S)N/N=C(\C)c2ccccn2)cc1`, the MST rises from 0.9 days to 2.9 days.

First: C/C(=N\NC(=S)NCc1ccc(Cl)cc1)c1ccccn1
Second: C/C(=N\NC(=S)Nc1ccc(Cl)cc1)c1ccccn1
The MST of the first is higher: 2.1 days for the first, 1.7 days for the second.

Compared with `COc1cccc(CNC(=S)N/N=C(\C)c2ccccn2)c1`, `CCc1ccc(NC(=S)N/N=C(\C)c2ccccn2)cc1` is higher in MST: 0.9 days for the first, 2.1 days for the second.

`C/C(=N\NC(=S)Nc1ccc(C(C)C)cc1)c1ccccn1` was tested, and the MST was 2.1 days.

These compounds were tested on Plasmodium berghei (assay: Antimalarial activity against Plasmodium berghei KBG 173 infected in ICR/HA Swiss mouse assessed as increase in mean survival time at 40 mg/kg, sc administered 72 hrs post infection). Details: route subcutaneous.
Type: functional

First: C/C(=N\NC(=S)NCc1cccc(F)c1)c1ccccn1
Second: COc1cccc(CNC(=S)N/N=C(\C)c2ccccn2)c1
The MST of the first is higher: 0.4 days for the first, 0.3 days for the second.

`COc1cccc(NC(=S)N/N=C(\C)c2ccccn2)c1` and `C/C(=N\NC(=S)Nc1cccc(Cl)c1)c1ccccn1` are the same in MST: 0.3 days for the first, 0.3 days for the second.

First: C/C(=N\NC(=S)Nc1ccccc1Cl)c1ccccn1
Second: COc1ccccc1NC(=S)N/N=C(\C)c1ccccn1
The MST of the first is higher: 0.5 days for the first, 0.1 days for the second.

`C/C(=N\NC(=S)NCc1ccccc1C)c1ccccn1` and `COc1ccccc1CNC(=S)N/N=C(\C)c1ccccn1` are the same in MST: 0.1 days for the first, 0.1 days for the second.

First: C/C(=N\NC(=S)NCc1ccc(C)cc1C)c1ccccn1
Second: C/C(=N\NC(=S)Nc1c(C)cccc1C)c1ccccn1
The MST of the first is higher: 0.5 days for the first, 0.4 days for the second.

Compared with `C/C(=N\NC(=S)Nc1ccccc1[N+](=O)[O-])c1ccccn1`, `CCc1ccccc1NC(=S)N/N=C(\C)c1ccccn1` is higher in MST: 0.1 days for the first, 0.3 days for the second.

First: C/C(=N\NC(=S)NC1CCCCCCC1)c1ccccn1
Second: C/C(=N\NC(=S)Nc1ccccn1)c1ccccn1
The MST of the first is lower: 1.1 days for the first, 1.5 days for the second.

Going from `C/C(=N\NC(=S)NC(C)(C)CC(C)(C)C)c1ccccn1` to `COc1ccc(CNC(=S)N/N=C(\C)c2ccccn2)cc1`, the MST falls from 1.1 days to 0.3 days.

`C/C(=N\NC(=S)NCc1ccc(Cl)cc1)c1ccccn1` and `C/C(=N\NC(=S)Nc1ccc(Cl)cc1)c1ccccn1` are the same in MST: 0.5 days for the first, 0.5 days for the second.

Going from `CCc1ccc(NC(=S)N/N=C(\C)c2ccccn2)cc1` to `C/C(=N\NC(=S)Nc1ccc(C(C)C)cc1)c1ccccn1`, the MST rises from 0.3 days to 0.5 days.

These compounds were tested on Plasmodium berghei (assay: Antimalarial activity against Plasmodium berghei KBG 173 infected in ICR/HA Swiss mouse assessed as curative effect at 160 mg/kg, sc administered 72 hrs post infection). Details: not given.
Type: functional, organism-based
Parameters: dose 160 mg/kg

In the case of `C/C(=N\NC(=S)NCc1ccccc1C)c1ccccn1`, the Activity is reported as “Active”.
`C/C(=N\NC(=S)NC1CCCCCCC1)c1ccccn1` was tested, and the Activity was “Active”.

Each compound was assayed on Plasmodium berghei (assay: Antimalarial activity against Plasmodium berghei KBG 173 infected in ICR/HA Swiss mouse assessed as increase in mean survival time at 320 mg/kg, sc administered 72 hrs post infection). Details: route subcutaneous.
Type: functional

Going from `C/C(=N\NC(=S)NCc1cccc(F)c1)c1ccccn1` to `C/C(=N\NC(=S)NCc1cccc(Cl)c1)c1ccccn1`, the MST falls from 5.8 days to 0 days.

Compared with `COc1cccc(NC(=S)N/N=C(\C)c2ccccn2)c1`, `C/C(=N\NC(=S)Nc1cccc(Cl)c1)c1ccccn1` is higher in MST: 4.3 days for the first, 5.1 days for the second.

First: C/C(=N\NC(=S)Nc1ccccc1Cl)c1ccccn1
Second: COc1ccccc1NC(=S)N/N=C(\C)c1ccccn1
The MST of the first is higher: 6.1 days for the first, 4.6 days for the second.

Compared with `C/C(=N\NC(=S)NCc1ccccc1C)c1ccccn1`, `COc1ccccc1CNC(=S)N/N=C(\C)c1ccccn1` is lower in MST: 7.7 days for the first, 3.5 days for the second.

First: C/C(=N\NC(=S)NCc1ccc(C)cc1C)c1ccccn1
Second: C/C(=N\NC(=S)Nc1c(C)cccc1C)c1ccccn1
The MST of the first is higher: 6.1 days for the first, 5.8 days for the second.

Compared with `C/C(=N\NC(=S)Nc1ccccc1[N+](=O)[O-])c1ccccn1`, `CCc1ccccc1NC(=S)N/N=C(\C)c1ccccn1` is lower in MST: 5.7 days for the first, 3.1 days for the second.

Going from `C/C(=N\NC(=S)NC1CCCCCCC1)c1ccccn1` to `C/C(=N\NC(=S)Nc1ccccn1)c1ccccn1`, the MST rises from 4.8 days to 6.5 days.

Going from `C/C(=N\NC(=S)NC(C)(C)CC(C)(C)C)c1ccccn1` to `COc1ccc(CNC(=S)N/N=C(\C)c2ccccn2)cc1`, the MST rises from 2.9 days to 5.9 days.

`C/C(=N\NC(=S)NCc1ccc(Cl)cc1)c1ccccn1` and `C/C(=N\NC(=S)Nc1ccc(Cl)cc1)c1ccccn1` are the same in MST: 4.3 days for the first, 4.3 days for the second.

Going from `COc1cccc(CNC(=S)N/N=C(\C)c2ccccn2)c1` to `CCc1ccc(NC(=S)N/N=C(\C)c2ccccn2)cc1`, the MST falls from 4.5 days to 3.1 days.

`C/C(=N\NC(=S)Nc1ccc(C(C)C)cc1)c1ccccn1` showed an MST of 5.9 days.

These compounds were tested on Plasmodium berghei (assay: Antimalarial activity against Plasmodium berghei KBG 173 infected in ICR/HA Swiss mouse assessed as increase in mean survival time at 80 mg/kg, sc administered 72 hrs post infection). Details: route subcutaneous.
Type: functional

First: C/C(=N\NC(=S)NCc1cccc(F)c1)c1ccccn1
Second: C/C(=N\NC(=S)NCc1cccc(Cl)c1)c1ccccn1
The MST of the first is higher: 1.4 days for the first, 0 days for the second.

First: COc1cccc(NC(=S)N/N=C(\C)c2ccccn2)c1
Second: C/C(=N\NC(=S)Nc1cccc(Cl)c1)c1ccccn1
The MST of the first is higher: 0.4 days for the first, 0.3 days for the second.

Going from `C/C(=N\NC(=S)Nc1ccccc1Cl)c1ccccn1` to `COc1ccccc1NC(=S)N/N=C(\C)c1ccccn1`, the MST falls from 0.5 days to 0.4 days.

Compared with `C/C(=N\NC(=S)NCc1ccccc1C)c1ccccn1`, `COc1ccccc1CNC(=S)N/N=C(\C)c1ccccn1` is lower in MST: 2.5 days for the first, 0.3 days for the second.

First: C/C(=N\NC(=S)NCc1ccc(C)cc1C)c1ccccn1
Second: C/C(=N\NC(=S)Nc1c(C)cccc1C)c1ccccn1
The MST of the first is lower: 0.1 days for the first, 0.4 days for the second.

Going from `C/C(=N\NC(=S)Nc1ccccc1[N+](=O)[O-])c1ccccn1` to `CCc1ccccc1NC(=S)N/N=C(\C)c1ccccn1`, the MST rises from 0.1 days to 0.3 days.

First: C/C(=N\NC(=S)NC1CCCCCCC1)c1ccccn1
Second: C/C(=N\NC(=S)Nc1ccccn1)c1ccccn1
The MST of the first is lower: 1.2 days for the first, 2.7 days for the second.

First: C/C(=N\NC(=S)NC(C)(C)CC(C)(C)C)c1ccccn1
Second: COc1ccc(CNC(=S)N/N=C(\C)c2ccccn2)cc1
The MST of the first is lower: 1.3 days for the first, 1.7 days for the second.

First: C/C(=N\NC(=S)NCc1ccc(Cl)cc1)c1ccccn1
Second: C/C(=N\NC(=S)Nc1ccc(Cl)cc1)c1ccccn1
The MST of the first is lower: 0.5 days for the first, 1.5 days for the second.

Going from `COc1cccc(CNC(=S)N/N=C(\C)c2ccccn2)c1` to `CCc1ccc(NC(=S)N/N=C(\C)c2ccccn2)cc1`, the MST rises from 0.3 days to 1.5 days.

`C/C(=N\NC(=S)Nc1ccc(C(C)C)cc1)c1ccccn1` was tested, and the MST was 1.9 days.
